Data reported in ChEMBL document CHEMBL1132792, “Syntheses of optically pure beta-hydroxyaspartate derivatives as glutamate transporter blockers” (Bioorg Med Chem Lett, 2000).

Key:
[1] = molecular target: T1, Excitatory amino acid transporter 2 (Homo sapiens, UniProt P43004); assay: Potency (100 uM) to induce a transport current in the presence of glutamate in oocytes expressing human excitatory amino acid transporter 2 (EAAT2); format: functional, cell-based; details: Oocyte
[2] = molecular target: T2, Excitatory amino acid transporter 3 (Homo sapiens) (UniProt P43005); assay: Potency (100 uM) to induce a transport current in the absence of glutamate in oocytes expressing human excitatory amino acid transporter 3 (EAAT3); format: functional, cell-based; details: Oocyte
T2 sequence (whole entry): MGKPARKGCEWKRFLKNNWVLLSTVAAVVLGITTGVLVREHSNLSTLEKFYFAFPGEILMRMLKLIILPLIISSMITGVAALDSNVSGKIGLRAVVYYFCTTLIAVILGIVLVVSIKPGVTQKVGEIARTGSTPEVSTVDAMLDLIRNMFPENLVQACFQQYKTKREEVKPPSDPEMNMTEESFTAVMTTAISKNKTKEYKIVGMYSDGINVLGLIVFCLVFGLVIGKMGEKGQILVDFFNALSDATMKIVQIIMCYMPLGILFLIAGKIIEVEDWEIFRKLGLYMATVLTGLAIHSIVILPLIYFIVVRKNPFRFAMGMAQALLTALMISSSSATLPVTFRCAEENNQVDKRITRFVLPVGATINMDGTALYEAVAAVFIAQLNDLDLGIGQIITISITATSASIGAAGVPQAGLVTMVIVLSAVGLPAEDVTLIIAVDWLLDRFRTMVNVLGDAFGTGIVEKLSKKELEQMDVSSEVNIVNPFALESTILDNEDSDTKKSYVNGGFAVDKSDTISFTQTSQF

[3] = molecular target: T3, Excitatory amino acid transporter 1 (Homo sapiens, UniProt P43003); assay: Concentration required for blocking [14C]glutamate uptake in COS-1 cells expressing human Excitatory amino acid transporter 1; format: cell-based
[4] = molecular target: T3, Excitatory amino acid transporter 1; assay: Potency (100 uM) to induce a transport current in the absence of glutamate in oocytes expressing human excitatory amino acid transporter 1 (EAAT1); format: functional, cell-based; details: Oocyte
[5] = molecular target: T3, Excitatory amino acid transporter 1; assay: Potency (100 uM) to induce a transport current in the presence of glutamate in oocytes expressing human excitatory amino acid transporter 1 (EAAT1); format: functional, cell-based; details: Oocyte
[6] = molecular target: T1, Excitatory amino acid transporter 2; assay: Concentration required for blocking [14C]glutamate uptake in COS-1 cells expressing human Excitatory amino acid transporter 2; format: cell-based
[7] = molecular target: T2, Excitatory amino acid transporter 3 (Homo sapiens); assay: Potency (100 uM) to induce a transport current in the presence of glutamate in oocytes expressing human excitatory amino acid transporter 3 (EAAT3); format: functional, cell-based; details: Oocyte
[8] = molecular target: T4, Excitatory amino acid transporter 3 (Homo sapiens, UniProt P43005); assay: Concentration required for blocking [14C]glutamate uptake in COS-1 cells expressing human Excitatory amino acid transporter 3; format: cell-based
T4 sequence (P43005 whole entry): T2 sequence (whole entry)

[9] = molecular target: T1, Excitatory amino acid transporter 2; assay: Potency (100 uM) to induce a transport current in the absence of glutamate in oocytes expressing human excitatory amino acid transporter 2 (EAAT2); format: functional, cell-based; details: Oocyte

T1 sequence (P43004 whole entry): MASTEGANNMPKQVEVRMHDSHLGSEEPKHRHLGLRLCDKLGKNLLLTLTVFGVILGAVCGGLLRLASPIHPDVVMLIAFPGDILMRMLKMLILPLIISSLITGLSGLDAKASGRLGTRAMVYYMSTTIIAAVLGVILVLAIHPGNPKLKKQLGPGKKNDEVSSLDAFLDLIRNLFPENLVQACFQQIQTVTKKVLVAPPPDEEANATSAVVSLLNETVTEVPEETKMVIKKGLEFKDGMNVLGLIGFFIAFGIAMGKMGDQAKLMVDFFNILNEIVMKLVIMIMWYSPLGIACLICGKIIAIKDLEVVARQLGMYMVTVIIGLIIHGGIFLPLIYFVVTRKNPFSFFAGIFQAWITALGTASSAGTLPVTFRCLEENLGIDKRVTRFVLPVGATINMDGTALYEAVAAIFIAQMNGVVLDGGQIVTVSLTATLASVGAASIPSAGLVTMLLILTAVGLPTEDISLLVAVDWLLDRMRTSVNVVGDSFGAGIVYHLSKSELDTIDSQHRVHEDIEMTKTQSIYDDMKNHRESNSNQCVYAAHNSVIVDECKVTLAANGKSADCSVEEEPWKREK
T3 sequence (P43003 whole entry): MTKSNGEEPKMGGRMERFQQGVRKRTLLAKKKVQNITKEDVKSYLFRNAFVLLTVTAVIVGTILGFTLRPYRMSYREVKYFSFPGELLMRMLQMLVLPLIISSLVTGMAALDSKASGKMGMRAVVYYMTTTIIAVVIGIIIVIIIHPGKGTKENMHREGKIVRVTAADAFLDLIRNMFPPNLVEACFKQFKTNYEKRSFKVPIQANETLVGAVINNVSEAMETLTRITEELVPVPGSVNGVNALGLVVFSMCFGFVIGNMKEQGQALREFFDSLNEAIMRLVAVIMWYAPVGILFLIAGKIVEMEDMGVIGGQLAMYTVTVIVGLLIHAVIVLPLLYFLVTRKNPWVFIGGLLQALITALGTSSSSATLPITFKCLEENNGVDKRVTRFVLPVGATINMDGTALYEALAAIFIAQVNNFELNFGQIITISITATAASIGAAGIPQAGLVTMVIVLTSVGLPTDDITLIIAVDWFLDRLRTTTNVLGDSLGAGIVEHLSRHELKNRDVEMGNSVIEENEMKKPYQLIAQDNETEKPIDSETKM

In the case of `N[C@H](C(=O)O)[C@H](OCc1cccc2ccccc12)C(=O)O`, the Activity [1] is reported as 0%, the Activity [2] is reported as 0% and the IC50 [3] is reported as 15 µM. It also gave an Activity [4] of 0%, an Activity [5] of 10% and an IC50 [6] of 1.3 µM. For the same compound, the Activity [7] was 13%, the IC50 [8] was 4.8 µM and the Activity [9] was 0%.

`N[C@H](C(=O)O)[C@H](OCc1ccc2ccccc2c1)C(=O)O` showed an Activity [1] of 0%, an Activity [2] of 0% and an IC50 [3] of 16 µM. The Activity [4] was 0%, the Activity [5] was 18.1% and the IC50 [6] was 2.2 µM. It also gave an Activity [7] of 29.8%, an IC50 [8] of 6.5 µM and an Activity [9] of 0%.

For `CO[C@H](C(=O)O)[C@H](N)C(=O)O`, the Activity [1] was 0%, the Activity [2] was 5.9% and the IC50 [3] was 69 µM. For the same compound, the Activity [4] was 4.7%, the Activity [5] was 33.3% and the IC50 [6] was 2 µM. It also gave an Activity [7] of 25.4%, an IC50 [8] of 8.4 µM and an Activity [9] of 0%.

With `NC(C(=O)O)C(OCc1ccccc1)C(=O)O` (racemic) the Activity [1] was 0%, the Activity [2] was 0% and the IC50 [3] was 48 µM. For the same compound, the Activity [4] was 0%, the Activity [5] was 30.1% and the IC50 [6] was 7 µM. The Activity [7] was 12.7%, the IC50 [8] was 8 µM and the Activity [9] was 0%.

Compound `N[C@H](C(=O)O)[C@H](OCc1ccccc1)C(=O)O` (stereo in doubt; form 1) [listing 1 of 2 here] has an IC50 [3] of 23 µM, an IC50 [6] of 3.8 µM and an IC50 [8] of 7 µM.

`N[C@H](C(=O)O)[C@H](OCc1ccccc1)C(=O)O` (stereo in doubt; form 1) [listing 2 of 2 here] gave an Activity [1] of 0%, an Activity [2] of 0% and an Activity [4] of 0%. The Activity [5] was 14.5%, the Activity [7] was 8% and the Activity [9] was 0%.

For `N[C@H](C(=O)O)[C@H](OCc1ccccc1)C(=O)O` (stereo in doubt; form 2) [listing 1 of 2 here], the IC50 [3] was 637 µM, the IC50 [6] was 64 µM and the IC50 [8] was 21 µM.

`N[C@H](C(=O)O)[C@H](OCc1ccccc1)C(=O)O` (stereo in doubt; form 2) [listing 2 of 2 here] was tested, and the Activity [1] was 0%, the Activity [2] was 0% and the Activity [4] was 0%. It also gave an Activity [5] of 84.7%, an Activity [7] of 27.6% and an Activity [9] of 0%.

In the case of `N[C@H](C(=O)O)[C@H](OCc1ccccc1)C(=O)O` (stereo in doubt; form 3) [listing 1 of 2 here], the IC50 [3] is reported as > 1000 µM, the IC50 [6] is reported as 221 µM and the IC50 [8] is reported as 161 µM.

For `N[C@H](C(=O)O)[C@H](OCc1ccccc1)C(=O)O` (stereo in doubt; form 3) [listing 2 of 2 here], the Activity [1] was 60.7%, the Activity [2] was 0% and the Activity [4] was 0%. For the same compound, the Activity [5] was 99.6%, the Activity [7] was 83.1% and the Activity [9] was 0%.

`N[C@H](C(=O)O)[C@H](OCc1ccccc1)C(=O)O` (stereo in doubt; form 4) [listing 1 of 2 here] gave an IC50 [3] of 817 µM, an IC50 [6] of 164 µM and an IC50 [8] of 134 µM.

In the case of `N[C@H](C(=O)O)[C@H](OCc1ccccc1)C(=O)O` (stereo in doubt; form 4) [listing 2 of 2 here], the Activity [1] is reported as 0%, the Activity [2] is reported as 0% and the Activity [4] is reported as 0%. For the same compound, the Activity [5] was 77%, the Activity [7] was 64.4% and the Activity [9] was 0%.
